According to patent US8785457B2 (Cellzome Limited, priority 2009, dated 2014):

Test system: Delayed type hypersensitivity (DTH) reaction
Experiment: Delayed type hypersensitivity in mice (KLH, ear thickness)
Assay type: in vivo
Source text: The Delayed type hypersensitivity (DTH) reaction is observed when subjects are immunized with an antigen, and then subsequently challenged with the same antigen to induce a localized inflammation. The model can be inhibited by drugs affecting a range of immune and inflammatory mechanisms. In this instance, a DTH reaction is induced in mice using Keyhole Limpet Hemocyanin (KLH), measuring inflammation in the ear pinna. Keyhole Limpet Hemocyanin (KLH; Sigma, catalogue number H7017) preparation: […] Aliquots were stored at −20° C. For the first immunization (day 0) the KLH stock solution (10 mg/ml) was diluted to 0.5 mg/ml with PBS (1:20). Then a 1:1 mixture with Complete Freund's Adjuvant (CFA; Sigma catalogue number 5881) was prepared (final KLH concentration 0.25 mg/ml). For the second immunization (day 5) the KLH stock solution was diluted to 1 mg/ml with 0.9% NaCl (1:10). Mice (Balb/c ˜9 weeks of age) were immunized with 2×100 μl of a 1:1 emulsion of KLH in CFA (25 μg KLH/site) injected subcutaneously into the right and left flank. On day 5 post-injection, mice received a challenge of 10 μg KLH (in 10 μl physiological saline), injected intradermally into the right ear. On day 5, 6 and 7 the ear thickness was measured with a caliper. Measurements were performed one hour after compound administration in the morning. Compound CZC1 corresponding to example 34 of the present invention was dosed once daily orally (p.o.) from day 0 to day 7 (Table 10). Vehicle: 0.5% carboxymethylcellulose (CMC). Doses: 3, 10 and 30 mg/kg. Cyclosporine A (Calbiochem) was dosed twice daily orally (p.o., 8 am and 4 pm from day 0 to day 7). Vehicle: 5% DMSO, 0.5 CMC. Dose: 25 mg/kg. Control treatment: 5% DMSO, 0.5% CMC administered p.o. [table]

Measured: increase in ear thickness

CCOC(=O)N1Cc2nc(-c3ccc(NC(=O)NC4CC4)cc3)nc(N3CCOC[C@@H]3C)c2C1 [Example 34, (S)-ethyl 2-(4-(3-cyclopropylureido)phenyl)-4-(3-methylmorpholino)-5H-pyrrolo[3,4-d]pyrimidine-6(7H)-carboxylate]
significantly reduced: 3 mg/kg p.o. once daily day 0 to day 7, 24 hours post-challenge | 10 mg/kg p.o. once daily day 0 to day 7, 24 hours post-challenge | 30 mg/kg p.o. once daily day 0 to day 7, 24 hours post-challenge
